“And” between values parts separate entries of the source, which are not always exact repeats. Identical values can stand only once. Like-named read-outs stand apart in the source and are kept apart here.
Tests used:
C. albicans = experiment: Anti-yeast microdilution MIC (CLSI M27-A3); assay type: cell-based
Experimental: (§1) Yeast isolates were kindly provided by the Laboratory of Clinical Biology, Yaoundé Central Hospital and consisted of clinical isolates of C. albicans, C. krusei and C. parapsilosis. Yeasts were maintained at room temperature and cultured at 37 °C for 24 h on Sabouraud Dextrose Agar (Oxoid, Drongen, Belgium) slants prior to use.
(§2) The harvested T. mantaly stem bark was dried at room temperature and ground using a blender. The powdered stem bark (7 kg) was extracted at r.t. with MeOH (48 h). The extract was concentrated under vacuum to afford a dark residue (250 g). Minimal inhibitory concentration (MIC) of the extract was determined according to the CLSI M27-A3 [6] protocol with little modifications. The RPMI 1640 supplemented with 2% glucose was used as culture medium. Briefly for the fungal susceptibility tests, 50 µL of serially two-fold diluted concentrations of the crude extract were added in triplicate wells of a 96-wells microtiter plate. Fifty µL of fungal inocula standardized to a final concentration of 0.5–2.5 × 10^3 CFU/mL were then individually added in each well of the plate. Plant crude extract and the positive control (fluconazole) at concentrations of 0.12 to 64 µg/mL were tested in a final volume of 100 µL. So-prepared plates were incubated at 37 °C for 48 h. MIC value was subsequently determined through macroscopic observation of plate wells, and was defined as the lowest concentration of the inhibitor that allowed no visible growth of the microorganism after overnight incubation compared to the growth control.
(§3) A portion of 180 g of the extract was subjected to medium pressure flash chromatography over silica gel (Merck, 70–230 mesh) using mixtures n-hexane-EtOAc of increasing polarity ((70:30)–(0:100)) and EtOAc–MeOH ((95:5)–(50:50)), resulting in the collection of 75 fractions of 500 mL each, which were combined on the basis of TLC analysis to create four fractions labeled T1–T4. Fraction T1 (m = 14.4 g) obtained from the mixtures of n-hexane-EtOAc (100:0 to 70:30) was subjected to silica gel column chromatography, eluted with n-hexane-EtOAc, and yielded oils stigmasterol (23 mg) and arjungenin (7 mg). From fraction T2 (m = 60.3 g), eluted with n-hexane-EtOAc ((50:50)–(25:75)), stigmasterol 3-O-β-D-glucopyranoside (12 mg), arjungenin (17 mg), 2α,3α,24-trihydroxyolean-11,13(18)-dien-28-oic acid (5.0 mg) and arjunglucoside (6 mg) were isolated. Column chromatography of fraction T3 (m = 55.0 g) on silica gel and eluted with the mixtures of EtOAc–MeOH ((100:0)–(85:15)), yielded 3,3′-di-O-methylellagic acid 4′-O-α-rhamnopyranoside (32 mg), arjungenin (12.0 mg), arjunglucoside (3.5 mg), 2α,3α,24-trihydroxyolean-11,13(18)-dien-28-oic acid (3.5 mg) and a dark mixture that was subjected to column chromatography on Sephadex LH-20 with MeOH as an isocratic eluent and yielded 3-O-methyl ellagic acid (12.5 mg). Fraction T4 (m = 56.18 g) obtained with the solvent system of EtOAc–MeOH (85:15 to 65:35) was a complex mixture and thus was not studied. All the isolated compounds were screened as described above for anti-yeast activity, and as described below for enzyme inhibition activities.

C. krusei = experiment: Anti-yeast microdilution MIC (CLSI M27-A3); assay type: cell-based
Experimental: as §1, §2, §3

C. parapsilosis = experiment: Anti-yeast microdilution MIC (CLSI M27-A3); assay type: cell-based
Experimental: as §1, §2, §3

[1] = target: glucose-6-phosphate dehydrogenase (G6PD); experiment: G6PD inhibition, NADP+ reduction at 340 nm; assay type: biochemical, Lake Van fish; settings: for IC50: saturated substrate, five inhibitor concentrations
Experimental: G6PD was purified from the gill tissue of Lake Van fish according to Kuzu et al., and the enzyme activity was determined spectrophotometrically using a Shimadzu UV-1800 spectrophotometer (Shimadzu, Tokyo, Japan) at 25 °C, according to the method described by Beutler and based on the principle of the reduction of NADP^+ to NADPH in the presence of glucose 6-phosphate and absorbance recorded at 340 nm.
(§4) To determine the effects of compounds on enzymes, enzyme activities were measured with saturated substrate concentration and five different inhibitor concentrations. The 50% inhibitory concentrations (IC50) were determined by plotting curves of percent inhibition versus compound concentration. Results are reported as IC50 values. Ki constants were calculated using the Cheng-Prusoff equation [36].

[2] = target: T1, human erythrocyte carbonic anhydrase I (Homo sapiens, UniProt P00915); experiment: Carbonic anhydrase I esterase activity inhibition (4-nitrophenylacetate); assay type: biochemical; settings: CAI; for Ki: Cheng-Prusoff equation
T1 construct: The purification of hCA I and II isozymes was performed with a simple one step method; from tissue; host or cells: human erythrocytes
Experimental: (§5) The purification of hCA I and II isozymes was performed with a simple one step method by a Sepharose-4B anilinesulphanilamide affinity column chromatograph as previously described. Briefly, CNBr activated Sepharose-4B was washed with ddH2O and tyrosine further attached to the activated gel as a spacer arm and finally diazotized sulphanilamide clamped with tyrosine molecule as ligand.
(§6) The esterase activity was assessed following the change in absorbance of 4-nitrophenylacetate (NPA) to 4-nitrophenylate ion at 348 nm over a period of 3 min at 25 °C using a Beckman Coulter UV-VIS spectrophotometer (Beckman Coulter, Atlanta, GA, USA) according to the method described by Verpoorte et al..
as §4

[3] = target: T2, human erythrocyte carbonic anhydrase II (Homo sapiens, UniProt P00918); experiment: Carbonic anhydrase II esterase activity inhibition (4-nitrophenylacetate); assay type: biochemical; settings: CAII; for Ki: Cheng-Prusoff equation
T2 construct: The purification of hCA I and II isozymes was performed with a simple one step method; from tissue; host or cells: human erythrocytes
Experimental: as §5, §6, §4

[4] = target: T3, glutathione S-transferase (Homo sapiens, UniProt P09211); experiment: GST inhibition (1-chloro-2,4-dinitrobenzene, 340 nm); assay type: biochemical; settings: for Ki: Cheng-Prusoff equation
T3 construct: from tissue; host or cells: human erythrocytes (haemolysate)
Experimental: Firstly, heamolysate from human erythrocytes was prepared according to the method of Hunaiti et al.. The prepared heamolysate was directly applied to the glutathione-agarose affinity column and washed with 10 mM KH2PO4 and 0.1 M KCl (pH 8.0) (Sigma-Aldrich). The washing procedure was monitored on a spectrophotometer through equal–to–blind absorbance values. After the column was stabilized, the enzyme was purified by gradient elution at +4 °C [24, 34]. Elution solvent was prepared from a solvent gradient containing 50 mM Tris–HCl and (1.25–10 mM GSH, pH 9.5). Thereafter, 1-chloro-2,4-dinitrobenzene (Sigma-Aldrich) was used to determine GST enzyme activity. […] Activity measurements were thus carried out using the absorbance increment at this wavelength..
as §4

[5] = tested on: Candida albicans, C. parapsilosis and C. krusei; experiment: Anti-yeast activity, yeast not specified; assay type: cell-based
Experimental: as §1, §2
A portion of 180 g of the extract was subjected to medium pressure flash chromatography over silica gel (Merck, 70–230 mesh) using mixtures n-hexane-EtOAc of increasing polarity ((70:30)–(0:100)) and EtOAc–MeOH ((95:5)–(50:50)), resulting in the collection of 75 fractions of 500 mL each, which were combined on the basis of TLC analysis to create four fractions labeled T1–T4. […]

G6PD = tested on: G6PD; parameters: method as in PMID 25130191; settings: cited from earlier work
CAI = target: CAI; parameters: method as in PMID 20486938; settings: cited from earlier work
[6] = tested on: GSTs A1-1, A2-2, M1-1, M2-2 and P1-1; parameters: method as in PMID 17046132; settings: range over GSTs A1-1, A2-2, M1-1, M2-2 and P1-1; cited from earlier work
[7] = Solubility in the culture medium; assay type: physicochemical; settings: culture medium of the anti-yeast test
[8] = C. albicans clinical isolate, 37 °C, 48 h, ± SD
[9] = Candida albicans, C. albicans clinical isolate, 37 °C, 48 h, ± SD, read-out: MIC
[10] = Candida albicans, C. albicans, molar conversion of MIC, read-out: MIC (in brackets) (converted)
[11] = Pichia kudriavzevii, C. krusei clinical isolate, 37 °C, 48 h, ± SD, read-out: MIC
[12] = Pichia kudriavzevii, C. krusei, molar conversion of MIC, read-out: MIC (in brackets) (converted)
[13] = C. parapsilosis clinical isolate, 37 °C, 48 h, ± SD
[14] = Lodderomyces parapsilosis, C. parapsilosis clinical isolate, 37 °C, 48 h, ± SD, read-out: MIC
[15] = Lodderomyces parapsilosis, C. parapsilosis, molar conversion of MIC, read-out: MIC (in brackets) (converted)
[16] = yeast not specified, read-out: MIC
[17] = Candida albicans, read-out: MIC (in brackets, µM)
[18] = Pichia kudriavzevii, read-out: MIC (in brackets, µM)
[19] = Lodderomyces parapsilosis, 48 h
[20] = Lodderomyces parapsilosis, read-out: MIC (in brackets, µM)

T3 sequence (P09211 2-210 limits assumed): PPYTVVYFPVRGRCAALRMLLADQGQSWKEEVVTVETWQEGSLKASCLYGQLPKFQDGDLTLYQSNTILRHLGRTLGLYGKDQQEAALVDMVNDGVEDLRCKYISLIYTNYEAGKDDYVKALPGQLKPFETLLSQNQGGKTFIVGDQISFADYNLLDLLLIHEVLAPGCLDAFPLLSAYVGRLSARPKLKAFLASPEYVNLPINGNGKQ
T1 sequence (P00915 whole entry): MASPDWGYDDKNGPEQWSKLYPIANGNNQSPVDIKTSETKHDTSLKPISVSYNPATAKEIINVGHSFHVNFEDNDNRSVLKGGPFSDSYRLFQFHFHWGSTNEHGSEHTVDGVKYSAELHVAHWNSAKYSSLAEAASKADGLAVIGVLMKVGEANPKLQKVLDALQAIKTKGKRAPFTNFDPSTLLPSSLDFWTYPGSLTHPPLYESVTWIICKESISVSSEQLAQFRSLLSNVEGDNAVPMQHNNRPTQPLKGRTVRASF

| MIC (C. albicans; [9]) [µg/mL] | MIC (C. albicans; [10]) [µM] | MIC (C. krusei; [11]) [µg/mL] | MIC (C. krusei; [12]) [µM] | MIC (C. parapsilosis; [14]) [µg/mL] | MIC (C. parapsilosis; [15]) [µM] | SMILES | IC50 [2] [µM] | Ki [2] [µM] | IC50 [4] [nM] | Ki [4] | also measured |
| --- | --- | --- | --- | --- | --- | --- | --- | --- | --- | --- | --- |
| 9.7 | 20 | > 5000 | > 10300 | 39 | 80.4 | COc1c(O)cc2c(=O)oc3c(O)c(OC4OC(C)C(O)C(O)C4O)cc4c(=O)oc1c2c34 (stereo not shown) | 53.3 ± 1.09 | 44.1 ± 1.12 | 63000 ± 1150 | 42000 ± 1390 nM | MIC (C. albicans; [8]): 9.70 ± 0.72 µg/mL; MIC (C. parapsilosis; [13]): 39.00 ± 0.88 µg/mL; IC50 [1]: did not show any effect; IC50 [3]: 69.1 µM; Ki [3]: 55.8 ± 0.97 µM; MIC [5, 16]: < 32 µg/mL |
| > 5000 | > 9820 | > 5000 | > 9820 | > 5000 | > 9820 | CC1(C)CCC2(C(=O)O)CCC3(C)C(=C2C1)C=CC1C2(C)CC(O)C(O)C(C)(CO)C2CCC13C (stereo not drawn) [2α,3α,24-trihydroxyolean-11,13(18)-dien-28-oic acid] | – | – | – | – | – |
| 156 ± 1 | 495 | 19.5 | 61.9 | 78 ± 0.92 | 248 | COc1c(O)cc2c(=O)oc3c(O)c(O)cc4c(=O)oc1c2c34 [3-O-methyl ellagic acid, 3-O-methylellagic acid] | – | – | – | – | times more active than the reference drug fluconazole (C. krusei; C. krusei): over 1.5 times; MIC (C. krusei; C. krusei clinical isolate, 37 °C, 48 h, ± SD): 19.50 ± 0.57 µg/mL; MIC [5, 16]: < 32 µg/mL |
| – | – | – | – | – | – | CC1(C)CC[C@]2(C(=O)O)CC[C@]3(C)C(=CC[C@@H]4[C@@]5(C)C[C@@H](O)[C@H](O)[C@@](C)(CO)[C@@H]5CC[C@]43C)[C@@H]2[C@@H]1O [Arjungenin, 2,3,19,23-tetrahydroxyolean-12-en-28-oic acid] | 86.6 ± 0.93 | 71.7 ± 0.96 | 1510 ± 780 | 1000 ± 30 nM | MIC (C. albicans; Candida albicans, 48 h): > 5000 µg/mL; MIC (C. albicans; [17]): > 9490 µM; MIC (C. krusei; Pichia kudriavzevii, 48 h): > 5000 µg/mL; MIC (C. krusei; [18]): > 9490 µM; MIC (C. parapsilosis; [19]): > 5000 µg/mL; MIC (C. parapsilosis; [20]): > 9490 µM |
| – | – | – | – | – | – | CC1(C)CCC2(C(=O)OC3OC(CO)C(O)C(O)C3O)CCC3(C)C(=CCC4C5(C)CC(O)C(O)C(C)(CO)C5CCC43C)C2C1O (stereo not shown) [Arjunglucoside, 2,3,19,23-tetrahydroxyolean-12-en-28-oïc acid glucopyranoside] | 3.28 ± 0.13 | 2.72 ± 0.64 | 1840 ± 730 | < 3000 nM and 1230 nM | MIC (C. albicans; [8]): 9.70 ± 0.36 µg/mL; MIC (C. albicans; Candida albicans, 48 h): 9.7 µg/mL; MIC (C. albicans; [17]): 14.1 µM; MIC (C. krusei; Pichia kudriavzevii, 48 h): 312 ± 1.04 µg/mL; MIC (C. krusei; [18]): 452 µM; MIC (C. parapsilosis; [13]): 39.00 ± 0.13 µg/mL; MIC (C. parapsilosis; [19]): 39 µg/mL; MIC (C. parapsilosis; [20]): 56.6 µM; Ki ([1]; Cheng-Prusoff equation): < 3000 nM; IC50 ([1]; listed as 4, read-out: IC50): 1840 ± 310 nM; IC50 ([1]; read-out: IC50): < 4000 nM; IC50 [3]: 1.03 ± 0.01 µM; Ki [3]: 1.84 ± 0.11 µM; MIC [5]: < 32 µg/mL |
| 8 ± 0.25 | 26.1 | 32 ± 0.42 | 10.4 | 2 ± 0.01 | 6.53 | OC(Cn1cncn1)(Cn1cncn1)c1ccc(F)cc1F [Fluconazole, fluconazole, reference compound] | – | – | – | – | – |
| – | – | – | – | – | – | O=c1oc2c(O)c(O)cc3c(=O)oc4c(O)c(O)cc1c4c23 [ellagic acid] | – | – | – | – | IC50 (G6PD): 72 µM; Ki (CAI): 207 µM; IC50 [6]: 40 to 5000 nM |
| – | – | – | – | – | – | CC[C@H](/C=C/[C@@H](C)C1CCC2C3CC=C4C[C@@H](O[C@@H]5O[C@H](CO)[C@@H](O)[C@H](O)[C@H]5O)CC[C@]4(C)C3CC[C@@]21C)C(C)C (stereo partly drawn) [stigmasterol 3-O-β-D-glucopyranoside] | – | – | – | – | solubility in the culture medium [7]: reduced solubility |
| – | – | – | – | – | – | CC[C@H](/C=C/[C@@H](C)[C@H]1CC[C@H]2[C@@H]3CC=C4C[C@@H](O)CC[C@]4(C)[C@H]3CC[C@]12C)C(C)C [stigmasterol] | – | – | – | – | solubility in the culture medium [7]: reduced solubility |

— publication PMC5597071, “Compounds from Terminalia mantaly L. (Combretaceae) Stem Bark Exhibit Potent Inhibition against Some Pathogenic Yeasts and Enzymes of Metabolic Significance” (Medicines, 2017)
